In patent US20250197389A1, “NITROGEN-CONTAINING HETEROCYCLIC COMPOUND” (SHANGHAI SHIJIANG BIOTECHNOLOGY CO., LTD, priority 2022, published 2025):

Legend:
Assay type in all cases: cell-based, human
[1] = tested on: mitochondria permeability transition pore; test: Mitochondria membrane potential (TMRM) in Daoy cell transfected with empty virus vector; conditions: H2O2 +, CsA −; untreated = 100
Excerpt: (§1) For cells with active mitochondria permeability transition pore, adding peroxide (such as H2O2) could increase the activity of mitochondria permeability transition pore, resulting in a decrease in mitochondria membrane potential.

[2] = tested on: mitochondria permeability transition pore; test: Mitochondria membrane potential (TMRM) in Daoy cell, mPTP activity; conditions: H2O2 +, CsA −; untreated = 100
Excerpt: as §1

[3] = tested on: mitochondria permeability transition pore; test: Mitochondria membrane potential (TMRM) in Daoy cell transfected with virus vector carrying PPIF shRNA; conditions: H2O2 +, CsA −; untreated = 100
Excerpt: as §1

mPTP-inactive Daoy cell = test: Inhibitory effect on mPTP-inactive Daoy cell (PPIF shRNA; Promega CellTiter-Glo, intracellular ATP); conditions: Homo sapiens, Daoy, Daoy cell transfected with virus vector carrying PPIF shRNA
Excerpt: The activity of mitochondria permeability transition pore (mPTP) was regulated by the PPIF protein. […] PPIF protein activity was restricted by the expression level of PPIF protein in cell.

mPTP-active Daoy cell = test: Inhibitory effect on mPTP-active Daoy cell (Promega CellTiter-Glo, intracellular ATP); conditions: Homo sapiens, Daoy, Daoy cell transfected with empty virus vector without PPIF shRNA

For `OO` [Compound H2O2, H2O2], the “Relative TMRM signal intensity (%) in the Daoy cell transfected with empty virus vector, mean value” [1] was 79%, the “Relative TMRM signal intensity (%) in Daoy cell, mean value” [2] was 82% and the “Relative TMRM signal intensity (%) in the Daoy cell transfected with virus vector carrying PPIF shRNA, mean value” [3] was 95%.

Work on `CCCC1=C2c3cc4c(cc3CCN2C(C(Cl)(Cl)Cl)c2c1ccc(OC)c2OC)OCO4` (stereo not drawn) [AB35492] yielded an IC50 (mPTP-inactive Daoy cell) of 1340 nM and an IC50 (mPTP-active Daoy cell) of 3780 nM.

Work on `COc1ccc2c(c1OC)CN1CCc3cc4c(cc3C1=C2Cc1ccc(C(C)C)cc1)OCO4` [AB31870] yielded an IC50 (mPTP-inactive Daoy cell) of 1860 nM and an IC50 (mPTP-active Daoy cell) of 3940 nM.

With `COc1ccc2c(c1OC)CN1CCc3cc4c(cc3C1=C2)OCO4` [AB36463] the IC50 (mPTP-inactive Daoy cell) was 880 nM and the IC50 (mPTP-active Daoy cell) was 1950 nM.

`[2H]C1([2H])c2c(ccc(OC)c2OC)C=C2c3cc4c(cc3CCN21)OCO4` [AB36434] gave an IC50 (mPTP-inactive Daoy cell) of 1130 nM and an IC50 (mPTP-active Daoy cell) of 2420 nM.

`[2H]C1c2c(ccc(OC)c2OCCC)C=C2c3cc4c(cc3CCN21)OCO4` (stereo not drawn) [AB36437] gave an IC50 (mPTP-inactive Daoy cell) of 540 nM and an IC50 (mPTP-active Daoy cell) of 1370 nM.

Work on `COc1ccc2c(c1OC(=O)CC13CC4CC(CC(C4)C1)C3)C(C)N1CCc3cc4c(cc3C1=C2)OCO4` (stereo not drawn) [AB31896] yielded an IC50 (mPTP-inactive Daoy cell) of 2420 nM and an IC50 (mPTP-active Daoy cell) of 5020 nM.

For `COc1ccc2c(c1OCCCCl)C(C1CCCCC1)N1CCc3cc4c(cc3C1=C2)OCO4` (stereo not drawn) [AB35491], the IC50 (mPTP-inactive Daoy cell) was 2630 nM and the IC50 (mPTP-active Daoy cell) was 6010 nM.

`COc1ccc2c(c1N1CCC(C)CC1)C(C(Cl)(Cl)Cl)N1CCc3cc4c(cc3C1=C2)OCO4` (stereo not drawn) [AB35453] was tested, and the IC50 (mPTP-inactive Daoy cell) was 430 nM and the IC50 (mPTP-active Daoy cell) was 1230 nM.

`C1=C2c3cc4c(cc3CCN2C(C2CCCC2)c2cc3c(cc21)OCO3)OCO4` (stereo not drawn) [AB35467] gave an IC50 (mPTP-inactive Daoy cell) of 8210 nM and an IC50 (mPTP-active Daoy cell) of 16100 nM.

In the case of `[2H]C([2H])([2H])Oc1c(OC)ccc2c1C([2H])(C1CCCC1)N1CCc3cc4c(cc3C1=C2)OCO4` (stereo not drawn) [AB36509], the IC50 (mPTP-inactive Daoy cell) is reported as 450 nM and the IC50 (mPTP-active Daoy cell) is reported as 2120 nM.

`COc1ccc2c(c1OCCN1CCCCC1)C(C)N1CCc3cc4c(cc3C1=C2)OCO4` (stereo not drawn) [AB35443] was tested, and the IC50 (mPTP-inactive Daoy cell) was 31000 nM and the IC50 (mPTP-active Daoy cell) was 30000 nM.

Work on `COc1ccc2c(c1OC)C(C(Cl)(Cl)Cl)N1CCc3cc4c(cc3C1=C2CCCc1ccccc1)OCO4` (stereo not drawn) [AB35417] yielded an IC50 (mPTP-inactive Daoy cell) of 1610 nM and an IC50 (mPTP-active Daoy cell) of 3620 nM.

Work on `ClC(Cl)(Cl)C1c2c(ccc3c2OCO3)C(CCCc2ccccc2)=C2c3cc4c(cc3CCN21)OCO4` (stereo not drawn) [AB35428] yielded an IC50 (mPTP-inactive Daoy cell) of 5610 nM and an IC50 (mPTP-active Daoy cell) of 12900 nM.

`COc1ccc2c(c1OCCCBr)CN1CCc3cc4c(cc3C1C2)OCO4` (stereo not drawn) [AB31878] was tested, and the IC50 (mPTP-inactive Daoy cell) was 11000 nM and the IC50 (mPTP-active Daoy cell) was 10400 nM.

`CCCCCCOc1c(OC)ccc2c1C(C(Cl)(Cl)Cl)N1CCc3cc4c(cc3C1=C2)OCO4` (stereo not drawn) [AB35487] showed an IC50 (mPTP-inactive Daoy cell) of 470 nM and an IC50 (mPTP-active Daoy cell) of 1770 nM.
